Measured values from patent US10035810B2, “5,6-dihydro-4H-benzo[b]thieno-[2,3-d]azepine derivative” (PULMOCIDE LIMITED, priority 2014, dated 2018).

Assays:
[1] = tested on: RSV B Washington strain; experiment: RSV B-induced CPE in HEp2 cells; type: cell-based; conditions: human respiratory syncytial virus
Description: Assessment of RSV Induced CPE in HEp2 Cells
HEp2 cells were seeded (10^3/well/50 μL) in 384-well plates (Catalogue number 353962, BD Falcon, Oxford, UK) in […] containing 2 mM L-glutamine and 1 mM sodium pyruvate one day before infection. RSV A2 strain (#0709161v, NCPV, Public Health England, Wiltshire) or RSV B Washington strain (VR-1580, ATCC, Manassas, Va. 20108) virus solutions were prepared in serum free-DMEM with 2 mM L-glutamine and 1 mM sodium pyruvate, and then added (50 μL/well) to achieve a final virus concentration of 1 MOI. Simultaneously Compound (I) (0.5 μL DMSO solution) was added to 100 μL of HEp2 cell culture with virus solution to provide a final DMSO solution of 0.5%. Plates were incubated (37° C./5% CO2) for 5 days for studies using RSV A2 strain or 6 days for those using RSV B strain, and then resazurin sodium salt (5 μL of 0.03% solution; Sigma-Aldrich, Dorset, UK) was added to each well and the plate incubated for a further 6 hr (37° C./5% CO2). The fluorescence of each well [545 nm (excitation)/590 nm (emission)] was determined using a multi-scanner (Clariostar: BMG, Buckinghamshire, UK). The percentage inhibition for each well was calculated and the IC50, IC75 and IC90 values were calculated from the concentration-response curve generated for Compound (I).

[2] = tested on: RSV A2; experiment: RSV infection in mice: virus titre in lung homogenate (plaque assay); type: in vivo, mice (male BALB/C); conditions: RSV A2 infected mice
Description: Non-fasted mice (male BALB/C, 20-30 g) were infected intranasally with RSV A2 or virus diluent (DMEM, 2% FBS, 12.5% sucrose) under isoflurane (5% in O2) anaesthesia. The A2 strain of RSV (50 uL of 1.3×10^6 PFU/mL: final 0.65×10^5 PFU/mouse) was instilled into each nostril in a drop wise fashion alternating between the two until a volume of 50 μL was delivered. Following infection each animal was weighed on a daily basis to monitor changes. Compound (I) was dissolved in 100% DMSO (at 20 mg/mL and/or 2 mg/mL), then diluted at 1:10 in isotonic saline to achieve 10% DMSO in all treatments. Formulations were then sonicated to produce a suspension. The suspension was administered intratracheally (20 μL) with a FMJ-250 PennCentury device or intranasally (40 μL) with a pipette on 1 day and 1 hr before infection (day 0), and then on days 1, 2 and 3 post infection. Four days after RSV challenge, the animals were euthanised (by intraperitoneal injection of a pentobarbitone overdose), the trachea cannulated and BALF extracted for total and differential cell counts. […]
Anti-RSV F-protein antibody [2F7] […] Plaques were counted by eye and confirmed using light microscopy, allowing the calculation of plaque forming units per mL of lung homogenate supernatant.

Cc1cnc(N2CC3(CCOCC3)C2)c(C(=O)Nc2ccc(C(=O)N3CCc4cc(C(=O)Nc5c(C)cccc5F)sc4-c4ccccc43)cc2)c1 [Compound (I), N-(2-fluoro-6-methylphenyl)-6-(4-(5-methyl-2-(7-oxa-2-azaspiro[3.5]nonan-2-yl)nicotinamido)benzoyl)-5,6-dihydro-4H-benzo[b]thieno[2,3-d]azepine-2-carboxamide]
IC50 ([1]; HEp-2, 144 h, 1 MOI, 6 days): 10.2 nM
inhibition at 1 µg/mL ([1]; HEp-2, at 1 μg/mL): 72%
Virus titre in the lungs (in words) [2]: completely inhibited virus titre
Viral titre in lung homogenates (in words) ([2]; intranasally or intratracheally): potent dose-dependent inhibition of viral titre
